# Data reported in patent publication US6949648B2, “Condensed pyrazole derivatives, process for producing the same and use thereof” (Takeda Pharmaceutical Company Limited, priority 2000, dated 2005).
row,melting point [°C],SMILES
1,164 to 166,"CCOC(=O)c1nn(-c2ccccn2)c2nc3ccccc3c(Cl)c12 [Example 2-179, Ethyl 4-chloro-1-(2-pyridinyl)-1H-pyrazolo[3,4-b]quinoline-3-carboxylate]"
2,175 to 176,"Cc1cc(O)c2c(C)nn(-c3ccccn3)c2n1 [Example 1-18, 3,6-Dimethyl-1-(2-pyridinyl)-1H-pyrazolo[3,4-b]pyridin-4-ol]"
3,233 to 235,"Cc1nn(-c2ccccn2)c2nc3ccc(Cl)cc3c(Cl)c12 [Example 2-70, 4,6-Dichloro-3-methyl-1-(2-pyridinyl)-1H-pyrazolo[3,4-b]quinoline]"
4,210 to 211,"Cc1nn(-c2ccccn2)c2nc3ccccc3c(C#N)c12 [Example 2-107, 3-Methyl-1-(2-pyridinyl)-1H-pyrazolo[3,4-b]quinoline-4-carbonitrile]"
5,157 to 159,"Cc1nn(-c2ccccn2)c2nc3ccccc3c(Cl)c12 [Example 1-34, 4-Chloro-3-methyl-1-(2-pyridinyl)-1H-pyrazolo[3,4-b]quinoline]"
6,214 to 215,"Cc1nn(-c2ccccn2)c2nc3cc(Cl)c(F)cc3c(Cl)c12 [Example 2-96, 4,7-Dichloro-6-fluoro-3-methyl-1-(2-pyridinyl)-1H-pyrazolo[3,4-b]quinoline]"
7,203 to 204,"Cc1nn(-c2ccccn2)c2nc3cc(Cl)ccc3c(Cl)c12 [Example 2-73, 4,7-Dichloro-3-methyl-1-(2-pyridinyl)-1H-pyrazolo[3,4-b]quinoline]"
8,166 to 168,"FC(F)(F)c1nn(-c2ccccn2)c2nc3ccccc3c(Cl)c12 [Example 2-166, 4-Chloro-1-(2-pyridinyl)-3-trifluoromethyl-1H-pyrazolo[3,4-b]quinoline]"
9,213 to 214,"Cc1nn(-c2ccccn2)c2nc3cc(Cl)c(Cl)cc3c(Cl)c12 [Example 2-75, 4,6,7-Trichloro-3-methyl-1-(2-pyridinyl)-1H-pyrazolo[3,4-b]quinoline]"
10,234 to 235,"Cc1nn(-c2ccccn2)c2nc3ccc(Br)cc3c(Cl)c12 [Example 2-86, 6-Bromo-4-chloro-3-methyl-1-(2-pyridinyl)-1H-pyrazolo[3,4-b]quinoline]"

# The next lines start with the compound.
row,SMILES,melting point [°C]
1,"Cc1nn(-c2ccccn2)c2[nH]c3ccccc3c(=O)c12 [Example 1-39, 3-Methyl-1-(2-pyridinyl)-1,9-dihydro-4H-pyrazolo[3,4-b]quinolin-4-one]",199 to 200
2,"Cc1cccc(-n2nc(C)c3c(=O)c4ccccc4[nH]c32)n1 [Example 2-208, 3-Methyl-1-(6-methyl-2-pyridinyl)-1,9-dihydro-4H-pyrazolo[3,4-b]quinolin-4-one]",252
3,"Cc1nn(-c2ccccn2)c2nc(O)c3c(c12)CCC3 [Example 1-28, 1-Methyl-3-(2-pyridinyl)-3,6,7,8-tetrahydrocyclopenta[d]pyrazolo[3,4-b]pyridin-5-ol]",255 to 256
4,"CCOC(=O)c1cnc2c(cnn2-c2ccccn2)c1O [Example 1-6, Ethyl 4-hydroxy-1-(2-pyridinyl)-1H-pyrazolo[3,4-b]pyridine-5-carboxylate]",195 to 197
5,"Cc1nn(-c2nccs2)c2[nH]c3ccccc3c(=O)c12 [Example 2-151, 3-Methyl-1-(1,3-thiazol-2-yl)-1,9-dihydro-4H-pyrazolo[3,4-b]quinolin-4-one]",226 to 227
6,"COC(=O)c1ccc2[nH]c3c(c(C)nn3-c3ccccn3)c(=O)c2c1 [Example 2-64, Methyl 3-methyl-4-oxo-1-(2-pyridinyl)-4,9-dihydro-1H-pyrazolo[3,4-b]quinoline-6-carboxylate]",265 to 266
7,"Cc1cccc2c(=O)c3c(C)nn(-c4ccc5ccccc5n4)c3[nH]c12 [Example 2-154, 3,8-Dimethyl-1-(2-quinolinyl)-1,9-dihydro-4H-pyrazolo[3,4-b]quinolin-4-one]",255 to 257
